Columns and labels:
Test in all cases: Kinase selectivity, DiscoverX scanMAX Kinase assay panel (% control)
Assay type in all cases: binding
[1] = biological target: T1, kinases of the scanMAX Kinase assay panel (Homo sapiens, UniProt P00519, T315I); details: 1 uM
T1 construct: purchased DiscoverX Co. (contract measurement) scanMAX Kinase assay panel
Method in brief: (§1)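 Compounds were tested at 1 uM (in DMSO) against each panel kinase. % control was calculated as (compound − positive control)/(negative control − positive control)×100, where the positive control gives 0% and DMSO gives 100%. Activity toward a kinase was called at % control <35%.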

[2] = biological target: T2, kinases of the scanMAX Kinase assay panel (Homo sapiens, UniProt P08631); details: HCK; 1 uM
T2 construct: purchased DiscoverX Co. (contract measurement) scanMAX Kinase assay panel
Method in brief: as §1

[3] = biological target: T3, kinases of the scanMAX Kinase assay panel (Homo sapiens, UniProt Q13164); details: ERK5; 1 uM
T3 construct: purchased DiscoverX Co. (contract measurement) scanMAX Kinase assay panel
Method in brief: as §1

[4] = biological target: T4, kinases of the scanMAX Kinase assay panel (Homo sapiens, UniProt Q13555); details: CAMK2G; 1 uM
T4 construct: purchased DiscoverX Co. (contract measurement) scanMAX Kinase assay panel
Method in brief: as §1

[5] = biological target: T5, kinases of the scanMAX Kinase assay panel (Homo sapiens, UniProt Q15139); details: PRKD1; 1 uM
T5 construct: purchased DiscoverX Co. (contract measurement) scanMAX Kinase assay panel
T5 sequence (Q15139 1-912): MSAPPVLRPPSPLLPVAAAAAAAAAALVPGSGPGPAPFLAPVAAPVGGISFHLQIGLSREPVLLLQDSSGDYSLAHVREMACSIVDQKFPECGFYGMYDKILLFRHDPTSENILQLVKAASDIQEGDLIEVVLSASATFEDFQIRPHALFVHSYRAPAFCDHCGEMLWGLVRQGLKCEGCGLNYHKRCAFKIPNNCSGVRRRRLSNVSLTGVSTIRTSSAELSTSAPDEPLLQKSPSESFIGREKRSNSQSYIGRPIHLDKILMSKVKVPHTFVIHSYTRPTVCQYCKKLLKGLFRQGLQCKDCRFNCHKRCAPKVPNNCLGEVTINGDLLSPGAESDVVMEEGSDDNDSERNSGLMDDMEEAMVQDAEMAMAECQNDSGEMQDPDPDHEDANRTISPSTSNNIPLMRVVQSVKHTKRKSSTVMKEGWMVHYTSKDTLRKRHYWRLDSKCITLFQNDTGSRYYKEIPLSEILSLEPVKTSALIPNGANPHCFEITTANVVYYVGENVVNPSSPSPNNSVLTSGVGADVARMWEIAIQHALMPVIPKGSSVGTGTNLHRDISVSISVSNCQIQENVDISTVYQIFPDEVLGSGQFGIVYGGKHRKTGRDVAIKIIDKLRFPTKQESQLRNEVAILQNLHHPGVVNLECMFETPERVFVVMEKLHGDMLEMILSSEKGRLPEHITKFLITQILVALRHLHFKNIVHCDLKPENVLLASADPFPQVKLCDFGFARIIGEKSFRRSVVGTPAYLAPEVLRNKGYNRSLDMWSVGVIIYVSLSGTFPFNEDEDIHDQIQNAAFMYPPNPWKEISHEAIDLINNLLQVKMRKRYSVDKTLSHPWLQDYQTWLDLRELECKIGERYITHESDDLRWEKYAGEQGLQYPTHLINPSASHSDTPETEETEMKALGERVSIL
Method in brief: as §1

[6] = biological target: T6, kinases of the scanMAX Kinase assay panel (Homo sapiens, UniProt Q9H1R3); details: MYLK2; 1 uM
T6 construct: purchased DiscoverX Co. (contract measurement) scanMAX Kinase assay panel
Method in brief: as §1

[7] = biological target: T7, kinases of the scanMAX Kinase assay panel (Homo sapiens, UniProt Q9NRP7); details: kinase STK36; 1 uM in DMSO
T7 construct: purchased DiscoverX Co. (contract measurement) scanMAX Kinase assay panel
T7 sequence (Q9NRP7 1-1315): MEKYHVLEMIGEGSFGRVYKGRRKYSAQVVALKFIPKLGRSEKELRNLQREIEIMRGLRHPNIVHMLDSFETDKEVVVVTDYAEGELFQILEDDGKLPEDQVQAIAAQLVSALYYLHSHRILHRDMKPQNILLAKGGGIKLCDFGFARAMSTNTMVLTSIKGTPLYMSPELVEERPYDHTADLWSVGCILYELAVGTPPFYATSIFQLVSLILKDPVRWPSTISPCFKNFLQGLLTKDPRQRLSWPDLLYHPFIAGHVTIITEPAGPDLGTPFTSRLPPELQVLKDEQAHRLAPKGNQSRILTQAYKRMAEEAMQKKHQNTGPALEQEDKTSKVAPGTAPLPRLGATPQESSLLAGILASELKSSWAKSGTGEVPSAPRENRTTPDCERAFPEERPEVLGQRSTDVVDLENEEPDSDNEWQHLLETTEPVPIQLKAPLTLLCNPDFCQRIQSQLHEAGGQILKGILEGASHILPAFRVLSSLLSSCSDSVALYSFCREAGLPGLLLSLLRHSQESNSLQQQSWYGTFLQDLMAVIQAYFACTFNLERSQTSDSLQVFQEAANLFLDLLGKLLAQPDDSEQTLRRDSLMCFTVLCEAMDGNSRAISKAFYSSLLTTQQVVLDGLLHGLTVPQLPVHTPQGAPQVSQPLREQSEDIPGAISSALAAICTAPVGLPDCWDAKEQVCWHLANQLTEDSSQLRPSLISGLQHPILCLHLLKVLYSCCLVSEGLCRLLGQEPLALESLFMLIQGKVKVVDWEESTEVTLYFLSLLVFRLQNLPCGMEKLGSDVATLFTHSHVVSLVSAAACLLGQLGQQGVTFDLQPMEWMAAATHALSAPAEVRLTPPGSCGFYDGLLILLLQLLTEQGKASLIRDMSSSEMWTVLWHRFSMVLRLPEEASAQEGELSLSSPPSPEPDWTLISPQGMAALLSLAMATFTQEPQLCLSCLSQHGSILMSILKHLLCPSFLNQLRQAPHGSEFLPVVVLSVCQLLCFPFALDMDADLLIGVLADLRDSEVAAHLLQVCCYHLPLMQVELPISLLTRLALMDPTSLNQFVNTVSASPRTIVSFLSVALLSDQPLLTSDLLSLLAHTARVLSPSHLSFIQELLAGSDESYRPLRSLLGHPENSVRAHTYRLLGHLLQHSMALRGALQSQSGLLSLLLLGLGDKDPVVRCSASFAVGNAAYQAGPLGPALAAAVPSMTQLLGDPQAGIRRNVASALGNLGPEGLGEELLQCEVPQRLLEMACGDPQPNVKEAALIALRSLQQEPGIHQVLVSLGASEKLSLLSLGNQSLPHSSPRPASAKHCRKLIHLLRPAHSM
Method in brief: as §1

T6 sequence (Q9H1R3 whole entry): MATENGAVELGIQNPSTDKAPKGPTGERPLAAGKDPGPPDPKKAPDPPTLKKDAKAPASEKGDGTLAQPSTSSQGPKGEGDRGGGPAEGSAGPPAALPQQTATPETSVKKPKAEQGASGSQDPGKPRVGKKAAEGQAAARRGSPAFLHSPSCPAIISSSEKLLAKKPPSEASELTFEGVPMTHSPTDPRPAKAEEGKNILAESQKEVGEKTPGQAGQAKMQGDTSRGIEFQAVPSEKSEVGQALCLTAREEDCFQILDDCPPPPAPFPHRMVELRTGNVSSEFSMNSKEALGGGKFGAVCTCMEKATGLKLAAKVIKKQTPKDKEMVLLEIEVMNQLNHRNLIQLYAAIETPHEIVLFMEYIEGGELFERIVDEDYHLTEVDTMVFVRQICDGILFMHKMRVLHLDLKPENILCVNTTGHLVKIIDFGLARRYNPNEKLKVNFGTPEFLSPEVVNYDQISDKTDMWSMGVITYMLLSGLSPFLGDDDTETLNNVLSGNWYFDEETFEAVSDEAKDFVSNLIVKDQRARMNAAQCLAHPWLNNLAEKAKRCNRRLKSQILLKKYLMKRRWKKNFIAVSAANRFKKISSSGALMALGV
T4 sequence (Q13555 whole entry): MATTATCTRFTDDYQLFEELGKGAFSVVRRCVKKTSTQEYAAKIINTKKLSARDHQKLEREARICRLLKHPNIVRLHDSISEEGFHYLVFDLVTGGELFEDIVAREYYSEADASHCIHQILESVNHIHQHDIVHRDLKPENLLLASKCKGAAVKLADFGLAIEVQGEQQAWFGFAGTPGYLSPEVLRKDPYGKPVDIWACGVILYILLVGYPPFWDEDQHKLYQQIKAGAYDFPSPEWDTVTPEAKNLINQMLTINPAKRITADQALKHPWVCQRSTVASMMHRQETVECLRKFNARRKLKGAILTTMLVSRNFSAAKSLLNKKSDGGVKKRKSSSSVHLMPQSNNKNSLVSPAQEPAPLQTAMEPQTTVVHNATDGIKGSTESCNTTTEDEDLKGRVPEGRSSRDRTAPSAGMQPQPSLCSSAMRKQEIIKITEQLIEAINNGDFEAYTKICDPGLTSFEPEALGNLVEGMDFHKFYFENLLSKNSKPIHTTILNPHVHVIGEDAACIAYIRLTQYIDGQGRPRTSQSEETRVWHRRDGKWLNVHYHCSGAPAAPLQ
T2 sequence (P08631 whole entry): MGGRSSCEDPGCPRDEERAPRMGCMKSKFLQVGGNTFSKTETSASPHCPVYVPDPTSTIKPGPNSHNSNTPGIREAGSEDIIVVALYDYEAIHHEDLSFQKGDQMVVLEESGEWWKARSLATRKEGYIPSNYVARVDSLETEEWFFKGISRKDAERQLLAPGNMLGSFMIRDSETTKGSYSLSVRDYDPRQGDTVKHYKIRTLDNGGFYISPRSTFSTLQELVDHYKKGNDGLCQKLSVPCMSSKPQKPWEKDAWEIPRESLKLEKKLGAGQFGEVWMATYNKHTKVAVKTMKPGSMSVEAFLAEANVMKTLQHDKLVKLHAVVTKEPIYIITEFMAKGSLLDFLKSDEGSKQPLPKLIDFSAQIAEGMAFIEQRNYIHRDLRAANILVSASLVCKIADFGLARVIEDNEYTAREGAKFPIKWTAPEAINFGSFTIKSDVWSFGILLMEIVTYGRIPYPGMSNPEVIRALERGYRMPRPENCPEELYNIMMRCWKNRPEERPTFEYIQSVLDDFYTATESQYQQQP
T3 sequence (Q13164 whole entry): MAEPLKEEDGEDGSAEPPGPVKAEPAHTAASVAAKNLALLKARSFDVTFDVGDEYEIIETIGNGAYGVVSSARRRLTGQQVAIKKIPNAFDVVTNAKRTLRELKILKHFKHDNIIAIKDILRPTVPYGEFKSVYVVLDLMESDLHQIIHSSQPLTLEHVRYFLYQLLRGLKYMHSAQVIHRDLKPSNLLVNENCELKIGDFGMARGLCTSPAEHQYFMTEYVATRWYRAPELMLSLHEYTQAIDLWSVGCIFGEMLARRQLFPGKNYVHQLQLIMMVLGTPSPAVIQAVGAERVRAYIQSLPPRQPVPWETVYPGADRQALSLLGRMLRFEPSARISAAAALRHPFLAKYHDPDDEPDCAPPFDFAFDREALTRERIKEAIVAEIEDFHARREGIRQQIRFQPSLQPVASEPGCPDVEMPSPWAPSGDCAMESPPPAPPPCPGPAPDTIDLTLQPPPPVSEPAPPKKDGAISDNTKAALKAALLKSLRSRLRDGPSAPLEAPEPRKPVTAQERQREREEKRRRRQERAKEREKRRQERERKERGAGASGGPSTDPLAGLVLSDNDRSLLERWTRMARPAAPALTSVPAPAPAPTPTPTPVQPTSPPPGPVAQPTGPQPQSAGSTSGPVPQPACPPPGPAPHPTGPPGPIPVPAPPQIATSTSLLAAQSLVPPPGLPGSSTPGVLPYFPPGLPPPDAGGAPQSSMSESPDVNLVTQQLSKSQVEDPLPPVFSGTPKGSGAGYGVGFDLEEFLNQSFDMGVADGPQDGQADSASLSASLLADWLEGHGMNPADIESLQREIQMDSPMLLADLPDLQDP

With `CCNc1nc(Nc2ccc(C(=O)N3CCC(N4CCOCC4)CC3)cc2OC)nc2[nH]cc(C(F)(F)F)c12` [Example 104, (4-((4-(ethylamino)-5-(trifluoromethyl)-7H-pyrrolo[2,3-d]pyrimidine-2-yl)amino)-3-methoxyphenyl)(4-morpholinopiperidine-1-yl)methanone] the remaining binding at 1 µM ([1]; ABL1(T315I)-nonphosphorylated) was 100%, the remaining binding at 1 µM ([1]; ABL1(T315I)-phosphorylated) was 98% and the remaining binding at 1 µM [2] was 100%. The remaining binding at 1 µM [3] was 18%, the remaining binding at 1 µM [4] was 80% and the remaining binding at 1 µM [5] was 11%. The remaining binding at 1 µM [6] was 100% and the remaining binding at 1 µM [7] was 100%.

`CC1(Nc2nc(Nc3cnn([C@H]4CCN(C5COC5)C[C@@H]4F)c3Cl)nc3[nH]cc(C#N)c23)CC1` [Example 52, 2-((5-chloro-1-((3S,4S)-3-fluoro-1-(oxetane-3-yl)piperidine-4-yl)-1H-pyrazole-4-yl)amino)((1-methylcyclopropyl)amino)-7H-pyrrolo[2,3-d]pyrimidine-5-carbonitrile] gave a remaining binding at 1 µM ([1]; ABL1(T315I)-nonphosphorylated) of 0%, a remaining binding at 1 µM ([1]; ABL1(T315I)-phosphorylated) of 0.05% and a remaining binding at 1 µM [2] of 11%. It also gave a remaining binding at 1 µM [3] of 13%, a remaining binding at 1 µM [4] of 53% and a remaining binding at 1 µM [5] of 12%. The remaining binding at 1 µM [6] was 100% and the remaining binding at 1 µM [7] was 85%.

`CNc1nc(Nc2ccc(C(=O)N3CCOCC3)cc2OC)nc2[nH]cc(C#N)c12` [Example 1, 2-((2-methoxy-4-(morpholine-4-carbonyl)phenyl)amino)-4-(methylamino)-7H-pyrrolo[2,3-d]pyrimidine-5-carbonitrile] showed a remaining binding at 1 µM ([1]; ABL1(T315I)-nonphosphorylated) of 83%, a remaining binding at 1 µM ([1]; ABL1(T315I)-phosphorylated) of 59% and a remaining binding at 1 µM [2] of 95%. For the same compound, the remaining binding at 1 µM [3] was 72%, the remaining binding at 1 µM [4] was 88% and the remaining binding at 1 µM [5] was 5.7%. It also gave a remaining binding at 1 µM [6] of 88% and a remaining binding at 1 µM [7] of 97%.

From patent US11208412B2 (DAEGU-GYEONGBUK MEDICAL INNOVATION FOUNDATION, priority 2017, dated 2021)
